Reference: US20120029045A1, “METHOD FOR TREATING PORT WINE STAINS” (SHANGHAI FUDAN-ZHANGJIANG BIO-PHARMACEUTICAL CO., LTD., priority 2010, published 2012)

How the values were obtained:
[1] = Dynamic change of the concentration of HpD and HMME in chicken blood; assay type: in vivo; settings: 10 mg/kg neck vein
Method: HpD and HMME in chicken blood were monitored at various times after injection. HpD or HMME was injected in chicken neck veins at a dose of 10 mg/kg, taking a blood sample every 10 minutes following injection. […] The two curves shown in FIG. 2 have generally the same pattern.

[2] = Pharmacokinetics of HMME in human body; assay type: in vivo
Method: Porphyrin-based photosensitizing drugs were injected intravenously at a dose of 2.5 and 5.0 mg/kg body weight for 20 minutes with a constant flow rate, and the pharmokinetics measured. Blood samples were taken at 5, 10, 20, 25, 30, 40, 50, 80, 110, 140, 200, 260 and 380 minutes separately to measure the serum concentrations of porphyrin-based photosensitizing drugs.

[3] = PDT for PWS, adverse effects and crust levels; assay type: in vivo, human
Method: A solution of 1 ml saline was injected in the superficial vein (e.g. median cubital vein) of patients to ensure no liquid leaked into tissues adjacent to the blood vessels into which the injection was made. At the same site, HMME was injected intravenously for 20 minutes with a constant flow rate by using an infusion pump. The doses applied were 2.5 mg/kg body weight or 5.0 mg/kg body weight. Next, 2-4 ml of saline solution was again injected to prevent the drugs from aggregating locally. Irradiation with KTP532 laser was then applied to the patient's lesion site 0-10 minutes after the start of injection, for a total duration of irradiation of either 20 minutes (denoted as the 20 min group), or 30 minutes (denoted as the 30 minute group). […] When irradiation was started immediately after the start of injection, the overlap between the injection and irradiation was about 20 minutes, when irradiation started 5 minutes after the start of injection, the overlap between drug injection and light irradiation was approximately 15 minutes, and when irradiation was started 10 minutes after the start of injection, the overlap was about 10 minutes. The therapeutic results were measured 8 weeks after the treatment. The most common adverse temporary effects included swelling, burning, redness, pain, blister and crust formation in PDT for PWS and these symptoms occurred in almost every case. Scar or crust thickness was measured as thickening of crusts. The crust levels served as an assessment index for scars.

[4] = 2.5 mg/kg iv over 20 min at constant flow rate
[5] = 5.0 mg/kg iv over 20 min at constant flow rate
[6] = Part A, 5.0 mg/kg, patients treated for 20 min
[7] = Part B, 2.5 mg/kg group, irradiated 20 min
[8] = Part B, 5.0 mg/kg group, irradiated 20 min
[9] = Part B, 2.5 and 5.0 mg/kg, irradiated 20 min

- time after injection at which serum concentration reaches a peak ([1]; chicken): 10 min
- AUC0˜n [2, 4]: 6342 ± 2824 ng·h/mL
- Cmax [2, 4]: 17491 ± 7045 ng/mL
- t1/2 [2, 4]: 1.26 ± 0.33 h
- AUC0˜n [2, 5]: 17531 ± 3467 ng·h/mL
- Cmax [2, 5]: 35724 ± 4539 ng/mL
- t1/2 [2, 5]: 1.31 ± 0.33 h
Substance: hematoporphyrin monomethyl ether [HMME]
- Photosensitizer concentration in chicken blood ([1]; post-injection time 10 min): 6.83 µg/mL
- Photosensitizer concentration in chicken blood ([1]; post-injection time 20 min): 5.92 µg/mL
- Photosensitizer concentration in chicken blood ([1]; post-injection time 30 min): 5.33 µg/mL
- Photosensitizer concentration in chicken blood ([1]; post-injection time 40 min): 4.83 µg/mL
- Photosensitizer concentration in chicken blood ([1]; post-injection time 50 min): 4.49 µg/mL
- Photosensitizer concentration in chicken blood ([1]; post-injection time 60 min): 4.17 µg/mL
- Photosensitizer concentration in chicken blood ([1]; post-injection time 70 min): 3.83 µg/mL
- Photosensitizer concentration in chicken blood ([1]; post-injection time 80 min): 3.58 µg/mL
- Photosensitizer concentration in chicken blood ([1]; post-injection time 90 min): 3.51 µg/mL
- Photosensitizer concentration in chicken blood ([1]; post-injection time 100 min): 2.67 µg/mL
- Photosensitizer concentration in chicken blood ([1]; post-injection time 110 min): 2.42 µg/mL
- Photosensitizer concentration in chicken blood ([1]; post-injection time 120 min): 1.99 µg/mL
- Blister, Mild (cases) ([3]; 5.0 mg/kg, 20 min group): 0
- Blister, Moderate (cases) ([3]; 5.0 mg/kg, 20 min group): 0
- Blister, Rate (%) ([3]; 5.0 mg/kg, 20 min group): 0.0%
- Blister, total (cases) ([3]; 5.0 mg/kg, 20 min group): 10
- Burning, Mild (cases) ([3]; 5.0 mg/kg, 20 min group): 0
- Burning, Moderate (cases) ([3]; 5.0 mg/kg, 20 min group): 0
- Burning, Rate (%) ([3]; 5.0 mg/kg, 20 min group): 0.0%
- Burning, total (cases) ([3]; 5.0 mg/kg, 20 min group): 0
- Pain, Mild (cases) ([3]; 5.0 mg/kg, 20 min group): 1
- Pain, Moderate (cases) ([3]; 5.0 mg/kg, 20 min group): 9
- Pain, Rate (%) ([3]; 5.0 mg/kg, 20 min group): 50.0%
- Pain, total (cases) ([3]; 5.0 mg/kg, 20 min group): 10
- Redness, Mild (cases) ([3]; 5.0 mg/kg, 20 min group): 0
- Redness, Moderate (cases) ([3]; 5.0 mg/kg, 20 min group): 0
- Redness, Rate (%) ([3]; 5.0 mg/kg, 20 min group): 0.0%
- Redness, total (cases) ([3]; 5.0 mg/kg, 20 min group): 0
- Swelling, Mild (cases) ([3]; 5.0 mg/kg, 20 min group): 9
- Swelling, Moderate (cases) ([3]; 5.0 mg/kg, 20 min group): 9
- Swelling, Rate (%) ([3]; 5.0 mg/kg, 20 min group): 90.0%
- Swelling, total (cases) ([3]; 5.0 mg/kg, 20 min group): 18
- crust level Moderate thick and fractional, (%) ([3]; 5.0 mg/kg, 20 min group): (5.0) %
- crust level Moderate thick and full, (%) ([3]; 5.0 mg/kg, 20 min group): (0.0) %
- crust level None, (%) ([3]; 5.0 mg/kg, 20 min group): (25.0) %
- crust level Thin and fractional, (%) ([3]; 5.0 mg/kg, 20 min group): (50.0) %
- crust level Thin and full, (%) ([3]; 5.0 mg/kg, 20 min group): (20.0) %
- Blister, Mild (cases) ([3]; 5.0 mg/kg, 30 min group): 2
- Blister, Moderate (cases) ([3]; 5.0 mg/kg, 30 min group): 0
- Blister, Rate (%) ([3]; 5.0 mg/kg, 30 min group): 10.0%
- Blister, total (cases) ([3]; 5.0 mg/kg, 30 min group): 2
- Burning, Mild (cases) ([3]; 5.0 mg/kg, 30 min group): 0
- Burning, Moderate (cases) ([3]; 5.0 mg/kg, 30 min group): 1
- Burning, Rate (%) ([3]; 5.0 mg/kg, 30 min group): 5.0%
- Burning, total (cases) ([3]; 5.0 mg/kg, 30 min group): 1
- Pain, Mild (cases) ([3]; 5.0 mg/kg, 30 min group): 3
- Pain, Moderate (cases) ([3]; 5.0 mg/kg, 30 min group): 12
- Pain, Rate (%) ([3]; 5.0 mg/kg, 30 min group): 75.0%
- Pain, total (cases) ([3]; 5.0 mg/kg, 30 min group): 15
- Redness, Mild (cases) ([3]; 5.0 mg/kg, 30 min group): 0
- Redness, Moderate (cases) ([3]; 5.0 mg/kg, 30 min group): 2
- Redness, Rate (%) ([3]; 5.0 mg/kg, 30 min group): 10.0%
- Redness, total (cases) ([3]; 5.0 mg/kg, 30 min group): 2
- Swelling, Mild (cases) ([3]; 5.0 mg/kg, 30 min group): 6
- Swelling, Moderate (cases) ([3]; 5.0 mg/kg, 30 min group): 12
- Swelling, Rate (%) ([3]; 5.0 mg/kg, 30 min group): 90.0%
- Swelling, total (cases) ([3]; 5.0 mg/kg, 30 min group): 18
- crust level Moderate thick and fractional, (%) ([3]; 5.0 mg/kg, 30 min group): (5.0) %
- crust level Moderate thick and full, (%) ([3]; 5.0 mg/kg, 30 min group): (15.0) %
- crust level None, (%) ([3]; 5.0 mg/kg, 30 min group): (15.0) %
- crust level Thin and fractional, (%) ([3]; 5.0 mg/kg, 30 min group): (25.0) %
- crust level Thin and full, (%) ([3]; 5.0 mg/kg, 30 min group): (40.0) %
- severity of adverse effects ([3]; Part A, 5.0 mg/kg, irradiation 20 or 30 min): mild or moderate
- scars [3, 6]: no scars were present
- serious-thick crusts [3, 6]: No serious-thick crusts occurred
- Crust Total, Rate (%) [3, 7]: 34.7%
- Crust level Mild, Rate (%) [3, 7]: 34.7%
- Crust level Moderate, Rate (%) [3, 7]: 0.0%
- Crust level Serious, Rate (%) [3, 7]: 0.0%
- Crust Total, Rate (%) [3, 8]: 88.01%
- Crust level Mild, Rate (%) [3, 8]: 60.0%
- Crust level Moderate, Rate (%) [3, 8]: 28.0%
- Crust level Serious, Rate (%) [3, 8]: 0.0%
- scars [3, 9]: no scars were formed
- serious-thick crusts [3, 9]: No serious-thick crusts occurred
